Source: patent US20230382868A1 (priority 2022, published 2023)
Like-named read-outs stand apart in the source and are kept apart here.

Columns and labels:
hBChE = hBChE (Homo sapiens, UniProt P06276); experiment: biochemical; type: biochemical
hMAO-B = target: T1, hMAO-B (Homo sapiens, UniProt P27338); type: biochemical; conditions: read-out: IC50 ± SEM hMAO-B
T1 construct: purchased Sigma Aldrich; host or cells: BTI-TN-5B1-4 insect cells
T1 sequence (P27338 1-520): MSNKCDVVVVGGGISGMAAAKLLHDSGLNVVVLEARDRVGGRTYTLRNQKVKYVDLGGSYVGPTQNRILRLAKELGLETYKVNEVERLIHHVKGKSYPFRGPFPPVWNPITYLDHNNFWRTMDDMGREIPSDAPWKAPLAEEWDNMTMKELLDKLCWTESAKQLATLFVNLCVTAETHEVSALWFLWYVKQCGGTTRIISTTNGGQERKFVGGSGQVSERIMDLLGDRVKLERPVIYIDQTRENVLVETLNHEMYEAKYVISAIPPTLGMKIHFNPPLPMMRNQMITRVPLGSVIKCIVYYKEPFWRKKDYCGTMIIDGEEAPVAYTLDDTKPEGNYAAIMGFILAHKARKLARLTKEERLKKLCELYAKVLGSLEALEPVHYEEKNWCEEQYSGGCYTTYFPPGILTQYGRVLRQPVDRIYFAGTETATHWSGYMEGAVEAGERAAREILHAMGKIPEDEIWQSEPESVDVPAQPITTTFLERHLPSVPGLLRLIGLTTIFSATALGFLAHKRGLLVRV

[1] = DPPH radical-scavenging assay; conditions: read-out: free-radical scavenging potency EC50 ± SEM (concentration that scavenged 50% of the DPPH free radicals); DPPH in MeOH, 90 min, room temperature, dark
Experimental: Free-radical scavenging potency was evaluated using the DPPH assay. […] The microtiter plate was incubated at room temperature in the dark for 90 min. The absorbance at 517 nm was then determined with a microplate reader (Synergy HT; BioTek Instruments, Inc., VT, USA). The experiments were performed in triplicate, with subtraction of the blank value (compound without DPPH). The percentages of DPPH free radicals were calculated as DPPH free radical (%)=[(A0−A1)/A0]×100, where A0 is the absorbance of the negative control, and A1 is the absorbance of the test sample. […] Resveratrol and Trolox were used as the positive controls under the same assay conditions.

[2] = Metal-chelating properties (UV-Vis spectra, Cu2+ titration, Yoe-Jones method); type: physicochemical; conditions: 30 μM compound; for interception point of Cu2+ titration (Yoe-Jones method): 0-150 μM Cu2+, Cu2+/compound molar ratio; for change in absorption spectra on addition of Fe2+ and Fe3+ / change in absorption spectra with Ca2+ and Mg2+: equimolar metal ion, HEPES buffer pH 7.4
Experimental: The chelation properties were determined in HEPES buffer (20 mM, 150 mM NaCl, pH 7.4) using a 96-well microplate reader (Synergy HT; BioTek Instruments, Inc., VT, USA). To determine the chelation of the metal ions by the compounds, 30 μM compound solution was treated with equimolar concentrations of CuCl2, ZnCl2, CoCl2, MgCl2, CaCl2, FeCl2, FeCl3, and AlCl3. To prevent oxidation of Fe^2+, the solution of FeCl2 was prepared in the presence of 1 mM ascorbic acid. The absorption spectra were recorded after 30 min incubation at room temperature. The chelation was detected by the change in the absorption spectra, which was specific for each metal ion. The Cu^2+ binding stoichiometry was resolved by titration of a 30 μM buffered solution of the compounds with additions of CuCl2 buffered stock solution. […] The absorbance differences in the absence and presence of Cu^2+ were plotted against the Cu^2+/compound molar ratio.

hAChE = hAChE (Homo sapiens, UniProt P22303); experiment: Inhibition of cholinesterases (Ellman method); type: biochemical; conditions: n.a. = not active (residual activity at 100 μM ≥50%); three independent experiments; read-out: IC50 ± SEM hAChE
[3] = Antioxidant capacity against hydroxyl radicals; conditions: statement in words, no method given
primary cultured neurons = experiment: Neuroprotection of primary cultured neurons after experimental ischemia; type: cell-based; conditions: statement in words, no method given
[4] = HEPES buffer pH 7.4, 30 min, room temperature

hBChE, sequence (P06276 29-602): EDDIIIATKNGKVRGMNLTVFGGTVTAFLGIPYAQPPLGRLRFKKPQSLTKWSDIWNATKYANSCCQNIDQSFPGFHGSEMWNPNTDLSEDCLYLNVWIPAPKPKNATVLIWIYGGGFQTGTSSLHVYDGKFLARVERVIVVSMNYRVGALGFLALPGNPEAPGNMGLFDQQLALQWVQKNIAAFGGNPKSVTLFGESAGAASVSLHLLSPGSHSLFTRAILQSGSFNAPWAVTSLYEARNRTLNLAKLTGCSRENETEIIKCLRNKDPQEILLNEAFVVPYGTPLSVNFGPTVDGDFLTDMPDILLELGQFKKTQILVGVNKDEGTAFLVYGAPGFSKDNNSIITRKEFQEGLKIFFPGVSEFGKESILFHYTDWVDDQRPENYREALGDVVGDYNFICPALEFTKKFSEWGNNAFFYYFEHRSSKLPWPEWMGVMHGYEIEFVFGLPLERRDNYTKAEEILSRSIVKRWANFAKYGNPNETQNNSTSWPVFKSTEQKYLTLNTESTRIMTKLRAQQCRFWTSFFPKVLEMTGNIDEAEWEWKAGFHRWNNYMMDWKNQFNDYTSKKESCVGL
hAChE, sequence (P22303 32-614): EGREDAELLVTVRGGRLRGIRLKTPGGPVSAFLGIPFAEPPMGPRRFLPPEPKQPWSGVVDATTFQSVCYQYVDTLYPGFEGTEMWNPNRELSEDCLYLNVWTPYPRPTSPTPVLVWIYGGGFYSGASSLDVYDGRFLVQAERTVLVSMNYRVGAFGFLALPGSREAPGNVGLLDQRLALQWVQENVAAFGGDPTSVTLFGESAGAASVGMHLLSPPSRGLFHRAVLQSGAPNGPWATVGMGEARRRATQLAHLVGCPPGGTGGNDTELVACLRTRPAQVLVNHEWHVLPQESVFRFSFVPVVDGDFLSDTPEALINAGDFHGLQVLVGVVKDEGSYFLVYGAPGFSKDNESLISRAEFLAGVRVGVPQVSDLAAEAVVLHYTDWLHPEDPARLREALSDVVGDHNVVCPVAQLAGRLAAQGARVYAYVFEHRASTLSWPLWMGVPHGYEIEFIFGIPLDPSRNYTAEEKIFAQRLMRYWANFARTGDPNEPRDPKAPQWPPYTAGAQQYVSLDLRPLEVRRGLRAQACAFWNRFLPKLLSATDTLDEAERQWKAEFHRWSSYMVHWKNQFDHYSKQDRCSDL

Work on `CC(C)(C)/[N+]([O-])=C/c1ccc2cccc(OCCCN3CCCCC3)c2n1` [Compound 3, (Z)-N-tert-Butyl-1-(8-(3-(piperidin-1-yl)propoxy)quinolin-2-yl)methanimine oxide] yielded an IC50 (hBChE; read-out: IC50 ± SEM hBChE) of 25.4 ± 2.1 nM.
With `[O-]/[N+](=C\c1ccc2cccc(OCCCN3CCCCC3)c2n1)Cc1ccccc1` [Compound 4, (Z)-N-Benzyl-1-(8-(3-(piperidin-1-yl)propoxy)quinolin-2-yl)methanimine oxide] the IC50 (hBChE) was 76.9 ± 6.3 nM.
Work on `C#CCN1CCN(CCCOc2cccc3ccc(/C=[N+](\[O-])C(C)(C)C)nc23)CC1` [Compound 7, (Z)-N-tert-Butyl-1-(8-(3-(4-(prop-2-yn-1-yl)piperazin-1-yl)propoxy)quinolin-2-yl)methanimine oxide] yielded an IC50 (hBChE; read-out: IC50 ± SEM hBChE) of 7.3 ± 1.1 nM.
Work on `C#CCN1CCN(CCCOc2cccc3ccc(/C=[N+](\[O-])Cc4ccccc4)nc23)CC1` [Compound 8, (Z)-N-Benzyl-1-(8-(3-(4-(prop-2-yn-1-yl)piperazin-1-yl)propoxy)quinolin-2-yl)methanimine oxide] yielded an IC50 (hBChE) of 31 ± 6.4 nM.
In the case of `C/[N+]([O-])=C/c1ccc2cccc(O)c2n1` [Compound 9, (Z)-1-(8-Hydroxyquinolin-2-yl)-N-methylmethanimine oxide], the IC50 (hMAO-B) is reported as 10100 ± 2500 nM.
`CC(C)(C)/[N+]([O-])=C/c1ccc2cccc(O)c2n1` [Compound 10, (Z)-N-tert-butyl-1-(8-hydroxyquinolin-2-yl)methanimine oxide] showed an IC50 (hMAO-B) of 16400 ± 1000 nM, an IC50 (hBChE; read-out: IC50 ± SEM hBChE) of 5.1 ± 0.6 nM and an EC50 [1] of 119000 ± 1200 nM. For the same molecule, the “interception point of Cu2+ titration (Yoe-Jones method)” value [2] was 0.5, the “new absorption maximum with equimolar Al3+ (bathochromic shift)” value [2, 4] was 296 nm and the “new absorption maximum with equimolar Cu2+ (bathochromic shift)” value [2, 4] was 310 nm. For the same molecule, the “new absorption maximum with equimolar Zn2+ (bathochromic shift)” value [2, 4] was 309 nm, the “change in absorption spectra on addition of Fe2+ and Fe3+” value [2] was “hyperchromic shift” and the “change in absorption spectra with Ca2+ and Mg2+” value [2] was “no major changes in absorption spectra”.
In the case of `[O-]/[N+](=C\c1ccc2cccc(O)c2n1)Cc1ccccc1` [Compound 11, (Z)-N-Benzyl-1-(8-hydroxyquinolin-2-yl)methanimine oxide], the IC50 (hAChE) is reported as 29 ± 3 nM, the IC50 (hBChE) is reported as ≤ 1.1 nM and the EC50 [1] is reported as 126000 ± 100 nM. For the same molecule, the “interception point of Cu2+ titration (Yoe-Jones method)” value [2] was 0.5, the “change in absorption spectra on addition of Fe2+ and Fe3+” value [2] was “hypochromic change in absorbance spectra” and the “change in absorption spectra with Ca2+ and Mg2+” value [2] was “no major alterations in spectra”. The “antioxidant capacity against hydroxyl radicals” value [3] was “striking antioxidant capacity” and the “neuroprotection of primary cultured neurons after experimental ischemia” value (primary cultured neurons) was “remarkable activity for neuroprotection”.
